# Patent US6569845B1, “Neovascularization inhibitor containing dienogest as the active ingredient” (Mochida Pharmaceutical Co., Ltd., priority 1997, dated 2003)
# Columns and labels:
# [1] = tested on: angiogenesis induced by the S-180 tumor cells; assay: Murine dorsal air sac assay, angiogenesis induced by S-180 tumor cells; format: in vivo; settings: mouse
# Procedure: Suppressing Action of Angiogenesis by Murine Dorsal Air Sac Assay According to the method by Iwabana et al. (Cancer Invasion & Metastatic Research Manual, Kinpodo, pp. 172-176, 1995), suppressing action of angiogenesis was tested by the murine dorsal skin method. S-180 tumor cell (murine derived sarcoma) suspended in phosphate buffered saline (PBS) was injected into a Millipore chamber, and the injection opening was closed with a nylon stopper. With an injection syringe, air (10 ml) was injected into the dorsal skin of a mouse anesthetized with Nembutal, to prepare an […], into which the Millipore chamber was transplanted. Animals were preliminarily divided into 4 groups; a Millipore chamber injected with PBS instead of S-180 tumor cells was transplanted into animals of a non-treatment control group (group A), which were then orally given 0.5% CMC carboxymethyl cellulose sodium (0.5% CMC, Wako Pure Chemical Industries, Co.) for 5 days. […] After placing a black ring of the same diameter as the diameter of these chambers at the position of the chambers in place, the number of newly formed vessels of a length of 3 mm or more inside the ring was counted under a stereoscopic microscope. […] Comparison between two groups was done and analyzed by the Wilcoxon's rank sum test; while comparison between multiple groups was done and analyzed by the Dunnett's multiple comparison.
# [2] = tested on: chorioallantoic membrane of chick fertilized egg; assay: CAM (chick embryo chorioallantoic membrane) assay, suppressing action of angiogenesis; format: in vivo; settings: for Number of choriallantoic membrane with non-vascular region: EV pellet, 2 days at 37° C.
# Procedure: Suppressing Action of Angiogenesis According to CAM (Chick Embryo Chorioallantoic Membrane) Assay
# According to the method by Hayashi, et al. (Mechanism of Angiogenesis and Diseases, Medical Journal, pp. 255-266, 1996), the suppressing action of angiogenesis was tested by the CAM assay using chorioallantoic membrane of chick fertilized egg. More specifically, a hole was opened through a chick fertilized egg incubated in an incubator at 37° C. for 4 or 5 days, and then, a silicone ring of an outer diameter of 5 mm and an inner diameter of 3 mm was gently placed on the center of the chorioallantoic membrane, followed by placement of an EV (ethylene-vinyl acetate copolymer) pellet containing dienogest or MPA inside the ring. A chorioallantoic membrane on which an EV pellet with no sample was placed was used as a control group. After incubation at 37° C. for 2 days, a fat emulsion preparation was injected into each chorioallantoic membrane, so as to get a clear view of the vascular network on the chorioallantoic membrane, for subsequent observation. Formation of a non-vascular region of a diameter of 3 mm or more on the chorioallantoic membrane was defined as positive suppressing action on angiogenesis.
# a: frequency in % of the occurrence of non-vascular region, in parenthesis.
# b: Data of suppressing action on angiogenesis is statistically tested by the Fisher's accurate probability test.
# rabbit cornea = rabbit cornea assay system (Yamamoto); cited from earlier work
SMILES,"suppression of angiogenesis induced by the S-180 tumor cells (angiogenesis index) ([1]; group C, 0.1 mg/kg orally for 5 days)","suppression of angiogenesis induced by the S-180 tumor cells (angiogenesis index) ([1]; group D, 1 mg/kg orally for 5 days, vs solvent control group (p<0.001))","dose that significantly increased the number of chorioallantoic membranes with non-vascular region ([2]; compared with the control group, dose-dependent)",frequency of the occurrence of non-vascular region ([2]; dose 0.01 μg/egg),Number of choriallantoic membrane with non-vascular region ([2]; dose 0.01 μg/egg),frequency of the occurrence of non-vascular region ([2]; dose 0.1 μg/egg),Number of choriallantoic membrane with non-vascular region ([2]; dose 0.1 μg/egg),frequency of the occurrence of non-vascular region ([2]; dose 1 μg/egg),Number of choriallantoic membrane with non-vascular region ([2]; dose 1 μg/egg),frequency of the occurrence of non-vascular region ([2]; dose 10 μg/egg),Number of choriallantoic membrane with non-vascular region ([2]; dose 10 μg/egg),frequency of the occurrence of non-vascular region ([2]; dose 100 μg/egg),Number of choriallantoic membrane with non-vascular region ([2]; dose 100 μg/egg),frequency of the occurrence of non-vascular region ([2]; dose 1000 μg/egg),Number of choriallantoic membrane with non-vascular region ([2]; dose 1000 μg/egg),number of chorioallantoic membranes with non-vascular region compared with the control group ([2]; 100 μg/egg),activity on angiogenic suppression (rabbit cornea)
"C[C@]12CCC3=C4CCC(=O)C=C4CC[C@H]3[C@@H]1CC[C@@]2(O)CC#N [Dienogest, 17 α-cyanomethyl-17 β-hydroxy-estra-4, 9(10)-dien-3-one]",weak suppression of angiogenesis,significantly suppressed angiogenesis,≥ 0.01 μg/egg,13.3%,2,23.5%,4,48.1%,13,54.2%,13,83.3%,20,91.7%,22,–,–
"CC(=O)O[C@]1(C(C)=O)CC[C@H]2[C@@H]3C[C@H](C)C4=CC(=O)CC[C@]4(C)[C@H]3CC[C@@]21C [MPA, medroxyprogesterone acetate]",–,–,–,–,–,–,–,–,–,–,–,50.0%,4,–,–,significantly increased,–
CC(=O)[C@H]1CC[C@H]2[C@@H]3CCC4=CC(=O)CC[C@]4(C)[C@H]3CC[C@]12C [progesterone],–,–,–,–,–,–,–,–,–,–,–,–,–,–,–,–,does not have any activity on angiogenic suppression
